Results from article PMC6253998, “Ring-substituted 4-Hydroxy-1H-quinolin-2-ones: Preparation and Biological Activity” (Molecules, 2009).
In brackets after ≈: the same amount, converted by molar mass. Several values for one entry are separate records, joined by “and”; a condition that tells them apart may be missing. Identical values can stand only once. Like-named read-outs stand apart in the source and are kept apart here.

Legend:
[1] = Lipophilicity HPLC determination (capacity factor k / log k); assay type: physicochemical; conditions: RP-HPLC, C18 column, MeOH 55.0% / H2O 45.0%, isocratic
Experimental: Hydrophobicities (log P/Clog P values) of the compounds 1-12 were calculated using two commercially available programs and also measured by means of the reversed phase high performance liquid chromatography (RP-HPLC) method for lipophilicity measurement. The procedure was performed under isocratic conditions with methanol as an organic modifier in the mobile phase using an end-capped non-polar C18 stationary RP column. The capacity factors k were determined and subsequent log k values were calculated.
The HPLC separation module Waters Alliance 2695 XE and Waters Photodiode Array Detector 2996 (Waters Corp., Milford, MA, U.S.A.) were used. A Symmetry® C18 5 μm, 4.6 × 250 mm, Part No. WAT054275, (Waters Corp., Milford, MA, U.S.A.) chromatographic column was used. The HPLC separation process was monitored by Millennium32® Chromatography Manager Software, Waters 2004 (Waters Corp., Milford, MA, U.S.A.). The mixture of MeOH p.a. (55.0%) and H2O-HPLC – Mili-Q Grade (45.0%) was used as a mobile phase. The total flow of the column was 0.9 mL/min, injection 30 μL, column temperature 30 °C and sample temperature 10 °C. The detection wavelength 210 nm was chosen. The KI methanolic solution was used for the dead time (TD) determination. Retention times (tR) were measured in minutes. The capacity factors k were calculated using the Millennium32® Chromatography Manager Software according to formula k = (tR - tD) / tD, where tR is the retention time of the solute, whereas tD denotes the dead time obtained via an unretained analyte. Log k, calculated from the capacity factor k, is used as the lipophilicity index converted to log P scale.

[2] = system: spinach chloroplasts; assay: Inhibition of oxygen evolution rate (OER) / photosynthetic electron transport in spinach chloroplasts; assay type: biochemical, Spinacia oleracea L.; conditions: DCPIP photoreduction, pH 7.2
Experimental: Chloroplasts were prepared from spinach (Spinacia oleracea L.) according to Masarovicova and Kralova. The inhibition of photosynthetic electron transport (PET) in spinach chloroplasts was determined spectrophotometrically (Genesys 6, Thermo Scientific, U.S.A.) using an artificial electron acceptor 2,6-dichlorophenol-indophenol (DCPIP) according to Kralova et al. and the rate of photosynthetic electron transport was monitored as a photoreduction of DCPIP. The measurements were carried out in phosphate buffer (0.02 mol/L, pH 7.2) containing sucrose (0.4 mol/L), MgCl2 (0.005 mol/L) and NaCl (0.015 mol/L). The chlorophyll content was 30 mg/L in these experiments and the samples were irradiated (~100 W/m^2) from 10 cm distance with a halogen lamp (250 W) using a 4 cm water filter to prevent warming of the samples (suspension temperature 22 °C). The studied compounds were dissolved in DMSO due to their limited water solubility. […] The inhibitory efficiency of the studied compounds was expressed by IC50 values, i.e. by molar concentration of the compounds causing 50% decrease in the oxygen evolution rate relative to the untreated control.

[3] = system: Absidia corymbifera 272; assay: In vitro antifungal broth microdilution test; assay type: cell-based; conditions: Lichtheimia corymbifera, 272, RPMI 1640, pH 7.0, 35 °C, read-out: MIC/IC80 AC
Experimental: (§1) Fluconazole (FLU) was used as the standard of a clinically used antimycotic drug. The procedure was performed with twofold dilution of the compounds in […]., Prague, Czech Republic) buffered to pH 7.0 with 0.165 mol of 3-morpholino-propane-1-sulfonic acid (MOPS, Sigma, Germany). […] Drug-free controls were included. The MIC was defined as an 80% or greater (IC80) reduction of growth in comparison with the control.

[4] = system: Aspergillus fumigatus 231; assay: In vitro antifungal broth microdilution test; assay type: cell-based; conditions: Aspergillus fumigatus, 231, RPMI 1640, pH 7.0, 35 °C, read-out: MIC/IC80 AF
Experimental: as §1

[5] = system: Candida albicans ATCC 44859; assay: In vitro antifungal broth microdilution test; assay type: cell-based; conditions: Candida albicans, ATCC44859, RPMI 1640, pH 7.0, 35 °C, read-out: MIC/IC80 CA
Experimental: as §1

[6] = system: Candida glabrata 20/I; assay: In vitro antifungal broth microdilution test; assay type: cell-based; conditions: for MIC: Nakaseomyces glabratus, 20/I, RPMI 1640, pH 7.0, 35 °C, read-out: MIC/IC80 CG
Experimental: as §1

[7] = system: Candida krusei ATCC 6258; assay: In vitro antifungal broth microdilution test; assay type: cell-based; conditions: Pichia kudriavzevii, ATCC6258, RPMI 1640, pH 7.0, 35 °C, read-out: MIC/IC80 CK
Experimental: as §1

[8] = system: Candida tropicalis 156; assay: In vitro antifungal broth microdilution test; assay type: cell-based; conditions: Candida tropicalis, 156, RPMI 1640, pH 7.0, 35 °C, read-out: MIC/IC80 CT
Experimental: as §1

[9] = system: Trichophyton mentagrophytes 445; assay: In vitro antifungal broth microdilution test; assay type: cell-based; conditions: for MIC: Trichophyton mentagrophytes, 445, RPMI 1640, pH 7.0, 35 °C, read-out: MIC/IC80 TM
Experimental: as §1

[10] = system: Trichosporon beigelii 1188; assay: In vitro antifungal broth microdilution test; assay type: cell-based; conditions: Trichosporon beigelii, 1188, RPMI 1640, pH 7.0, 35 °C, read-out: MIC/IC80 TB
Experimental: (§2) The broth microdilution test was used for the assessment of in vitro antifungal activity of the synthesized compounds against Candida albicans ATCC 44859 (CA), Candida tropicalis 156 (CT), Candida krusei ATCC 6258 (CK), Candida glabrata 20/I (CG), Trichosporon beigelii 1188 (TB), Aspergillus fumigatus 231 (AF), Absidia corymbifera 272 (AC), and Trichophyton mentagrophytes 445 (TM). Fluconazole (FLU) was used as the standard of a clinically used antimycotic drug. The procedure was performed with twofold dilution of the compounds in RPMI 1640 (Sevapharma a.s., Prague, Czech Republic) buffered to pH 7.0 with 0.165 mol of 3-morpholino-propane-1-sulfonic acid (MOPS, Sigma, Germany). The final concentrations of the compounds ranged from 500 to 0.975 μmol/l. Drug–free controls were included. The MIC was defined as an 80% or greater (IC80) reduction of growth in comparison with the control. The values of MICs were determined after 24 and 48 h of static incubation at 35 °C. For T. mentagrophytes, the final MICs were determined after 72 and 120 h of incubation.

[11] = system: eight fungal strains; assay: In vitro antifungal screening, overall verdict; assay type: cell-based; conditions: especially against Candida albicans ATCC 44859
Experimental: as §2

[12] = system: spinach chloroplasts; set-up: method as in earlier work; conditions: standard, read-out: OER inhibition IC50; cited from earlier work

| SMILES | log k [1] | IC50 [2] [µM] | MIC ([3]; 24h) [µM] | MIC ([3]; 48h) [µM] | MIC ([4]; 24h) [µM] | MIC ([4]; 48h) [µM] | MIC ([5]; 24h) [µM] | MIC ([5]; 48h) [µM] | MIC ([6]; 24h) [µM] | MIC ([6]; 48h) [µM] | MIC ([7]; 24h) [µM] | MIC ([7]; 48h) [µM] | MIC ([8]; 24h) [µM] | MIC ([8]; 48h) [µM] | MIC ([9]; 72h) [µM] | MIC ([9]; 120h) [µM] | MIC ([10]; 24h) [µM] | MIC ([10]; 48h) [µM] | in vitro antifungal activity (in words) [11] | further results |
| --- | --- | --- | --- | --- | --- | --- | --- | --- | --- | --- | --- | --- | --- | --- | --- | --- | --- | --- | --- | --- |
| O=C(O)c1ccc2[nH]c(=O)c(/N=N/c3cc(Cl)c([N+](=O)[O-])cc3Cl)c(O)c2c1 [Compound 8, (E)-3-[(2,5-Dichloro-4-nitrophenyl)diazenyl]-4-hydroxy-2-oxo-1,2-dihydroquinoline-6-carboxylic acid] | 0.6394 | 126 | 62.5 (≈ 26.4 µg/mL) | 250 (≈ 106 µg/mL) | 125 (≈ 52.9 µg/mL) | 250 (≈ 106 µg/mL) | 31.2 (≈ 13.2 µg/mL) | 125 (≈ 52.9 µg/mL) | 250 (≈ 106 µg/mL) | > 250 | 250 (≈ 106 µg/mL) | 250 (≈ 106 µg/mL) | 250 (≈ 106 µg/mL) | > 250 | 62.5 (≈ 26.4 µg/mL) | 125 (≈ 52.9 µg/mL) | 250 (≈ 106 µg/mL) | > 250 | only a moderate activity | antifungal activity against Trichophyton mentagrophytes 445 (in words) [9]: medium activity |
| O=C(O)c1cc2c(O)cc(=O)[nH]c2cc1O [Compound 4, 4,7-Dihydroxy-2-oxo-1,2-dihydroquinoline-6-carboxylic acid] | 0.0080 | 538 | > 500 | > 500 | 500 (≈ 111 µg/mL) | > 500 | 15.6 (≈ 3.45 µg/mL) | 62.5 (≈ 13.8 µg/mL) | 62.5 (≈ 13.8 µg/mL) | 250 (≈ 55.3 µg/mL) | > 500 | > 500 | 500 (≈ 111 µg/mL) | > 500 | > 500 | > 500 | 62.5 (≈ 13.8 µg/mL) | > 500 | only a moderate activity | antifungal activity against Candida glabrata 20/I (in words) [6]: medium activity |
| CN(C)C(=O)Nc1ccc(Cl)c(Cl)c1 [DCMU, 3-(3,4-dichlorophenyl)-1,1-dimethylurea] |  |  |  |  |  |  |  |  |  |  |  |  |  |  |  |  |  |  |  | IC50 [12]: ~1.9 µM and 1.9 µM |
